Series [1] deals with HIF-1α in THP-1 and HL-60 cells and guinea pig alveolar macrophages. Nature of the series: Induction of HIF-1α in myelomonocytic cells and alveolar macrophages exposed to iron chelators in vitro. Type of series: cell-based, human; guinea pig. To be noted: for accumulation of cytoplasmic HIF-1α followed by nuclear translocation in a subset of the cells / concentration for HIF-1α induction effect (molar level): THP-1, HL-60 cells and guinea pig alveolar macrophages.

For another series, the system named is TNF-α. Kind of series: TNF-α production after exposure to iron chelators (L929-cytotoxicity assay). To be noted: following HIF-1α upregulation and nuclear translocation. The series is classed as cell-based, human; guinea pig. On the procedure: (§1) Alveolar macrophages were procured from naïve and BCG-vaccinated guinea pigs by lavage of the lungs in situ immediately following euthanasia. The isolated cells were subjected to Percoll gradient centrifugation (BO & Babiuk) to remove contaminating epithelial cells, neutrophils and erythrocytes. The cells were subsequently incubated overnight in chamber slides (Nunc) in RPMI medium with 10% fetal bovine serum (FBS) and antibiotics to allow the cells to adhere. THP-1 and HL60 cells, obtained from the ATCC (Rockville, Md.), were maintained in suspension in RPMI/10% FBS. The various cell types were washed thoroughly in Hank's balanced salt solution (HBSS) before incubation in HBSS without or with mycobactin or desferroxamine at various concentrations and for various length of time (see result section). At the end of the incubation time the spend media were collected and stored at −70° C. for later assay for IL-8 and TNF-α. The cells were then either spotted onto Teflon coated slides for immunolabelling for HIF-1α or HO-1 (see above) or were subjected to differential lysis to procure cytoplasmic and nuclear proteins, respectively. The protein samples were separated on 10% SDS-polyacrylamide gels and blotted onto nitrocellulose membranes. […]
(§2) TNF-α was quantitated using the L929-cytotoxicity assay and TGFβ1 assay was done by ELISA.

Another series relates to IL-8. Kind of series: IL-8 secretion after exposure to iron chelators (ELISA). Type of series: cell-based, human; guinea pig. To be noted: following HIF-1α nuclear translocation; enhanced by PMA differentiation of the human cells.
In a further series the test system is TGFβ1. Kind of series: TGFβ1 production after exposure to iron chelators (ELISA). Type of series: cell-based, human; guinea pig. To be noted: following HIF-1α upregulation and nuclear translocation. The method, then:
as §1, §2

The nature of series [2]: Iron binding capacity by the ferrozine method. Type of series: physicochemical. The note with it: for iron binding capacity: ferrozine method. On the procedure:
Iron saturated mycobactin J was purchased from Allied Monitor (Fayette, Mo.). Iron was removed and mycobactin purified by initially reconstituting the lyophilized solution of crude Fe^3+-mycobactin J complex in CHCl3 and 4N HCl. The suspension was stirred for 30 min. The water phase was separated and 4N HCl was added. After being stirred for 30 min, water phase was removed; this process was conducted three times to provide clear color solution. The CHCl3 phase was dried over Na2SO4, and concentrated in vacuo. Purification by SiO2 (CHCl3:MeOH=20:1) gave Fe^3+-free mycobactin J. The preparation was determined to be greater than 94% pure by NMR spectroscopy. Crude preparations of mycobactin J (50 mgs) yielded 9.8 mg following iron removal and purification. The iron binding capacity of iron saturated and Fe^3+-free preparations were determined by the ferrozine method (Eagle Diagnostics, Desoto, Tex.).

On to `CC(=O)N(O)CCCCCNC(=O)CCC(=O)N(O)CCCCCNC(=O)CCC(=O)N(O)CCCCCN` [desferroxamine, reference compound], for which, in series [1], the “accumulation of cytoplasmic HIF-1α followed by nuclear translocation in a subset of the cells” value is recorded as “induced accumulation of cytoplasmic HIF-1α in a dose-dependent manner” and the “concentration for HIF-1α induction effect (molar level)” value fell in the range of 10 to 100 µM. The “induction of TNF-α production” value with TNF-α was “minimal”. Further, the IL-8 secretion result with IL-8 is reported as “induction of IL-8 secretion”. For the same molecule, the “induction of TGFβ1 production” value in the series on TGFβ1 is given as “minimal”.

In series [2], “Fe^3+-free mycobactin J [Fe^3+-free preparation]” had an iron binding capacity of 66.7 µmol/L.

Molecule “Fe^3+-mycobactin J complex [Fe^3+-saturated mycobactin]” showed an iron binding capacity in series [2] of 0 µmol/L.

On to mycobactin J, for which, in series [1], the “accumulation of cytoplasmic HIF-1α followed by nuclear translocation in a subset of the cells” value was “induced accumulation of cytoplasmic HIF-1α in a dose-dependent manner” and the “concentration for HIF-1α induction effect (molar level)” value was in the range of 1 to 5 µM. Also, the “potency at inducing HIF-1α compared with desferrioxamine” value in series [1] (THP-1 cells in vitro, molar equivalent) is reported as “significantly more potent”. The “induction of TNF-α production” value with TNF-α is given as “minimal”. For the same molecule, in the series with IL-8, the IL-8 secretion entry is given as “induction of IL-8 secretion”. Besides, in the series on TGFβ1, the “induction of TGFβ1 production” value is recorded as “minimal”. Also, the “iron binding capacity compared with desferrioxamine” value in series [2] (compared on a molar equivalent) is on record as “lower iron binding capacity than desferrioxamine”.
